Data on one molecule can be found in patent US20070203212A1, “METHOD OF TREATING OSTEOARTHRITIS” (WARNER-LAMBERT COMPANY, priority 2002, published 2007).

For assay [1], the system named is monosodium iodoacetate (MIA)-induced osteoarthritis. The assay can be described thus: MIA rat model, acute single oral dose: change in hind paw weight distribution (joint pain). In kind it is in vivo. To be noted: for shift in weight bearing potential (joint pain) versus pre-dose: 2, 4 and 6 hours post administration. The method, then:
(§1) It should be appreciated that in Biological Methods 1, 2, 4, and 5 below, hind paw weight bearing differentials between the paw of the limb having the control joint (in animals administered test compound vehicle only) and the paw of the limb having the contralateral test joint (in control or inducement animals administered test compound vehicle only and in treatment animals administered test compound dissolved in test compound vehicle) were determined using an incapacitance tester, model 2KG (Linton Instrumentation, Norfolk, United Kingdom). The incapacitance tester has a chamber on top with an outwardly sloping front wall that supports a rat's front limbs, and two weight sensing pads, one for each hind paw, that facilitates this determination. The hind paw weight bearing differentials were expressed in grams and calculated as follows: (the average weight in grams placed on the control limb minus the average weight in grams placed on the contralateral test limb for each of the inducement or treatment animals) minus (the average weight in grams placed on the control limb minus the average weight in grams placed on the contralateral test limb for each of the control animals). All results were statistically analyzed by comparing the average results for an induction or treatment group with the average result for its control group at the same time point using analysis of covariance (“ANCOVA”) followed by the Hoehberg's procedure and those with statistical significance had p<0.05 unless otherwise noted.
The rats were anesthetized with 5% volume/volume (“v/v”) isoflurane gas and maintained with 2% v/v isoflurane gas. The anesthetized rats were given a single intra-articular injection of 1 mg of MIA through the infrapatellar ligament of the right knee. MIA was dissolved in physiologic saline and administered in a volume of 50 μL. The contralateral control knee was injected with 50 μL of physiologic saline. Administration of isoflurane gas was discontinued, and the rats became fully conscious about 5 minutes later.
Shifts in hind paw weight distribution from the right to the left hind paws supporting the right (arthritic) and the left (contralateral control) hind leg knee joints were utilized as an index of joint pain and as a measure of compound efficacy. An incapacitance tester (Model 2KG, Linton Instrumentation, UK) was employed for determination of hind paw weight distribution. Each data point is the mean of three readings of 5 seconds duration.
CI-1027 (i.e., 6-(5-carboxy-5-methyl-hexyloxy)-2,2-dimethyl-hexanoic acid, calcium salt) was dissolved in hydroxypropylmethylcellulose (“HPMC”) vehicle (0.05% HPMC+0.2% Tween 80; compound amount was adjusted based on the percent of free acid, i.e., 6-(5-carboxy-5-methyl-hexyloxy)-2,2-dimethyl-hexanoic acid).
[…] Rats were then given a single, 10, 30, or 100 mg/kg, dose of CI-1027 via oral gavage (PO). Changes in hind paw weight distribution were determined 2, 4 and 6 hours post-compound administration.
6-(5-carboxy-5-methyl-hexyloxy)-2,2-dimethyl-hexanoic acid, calcium salt (“CI-1027”) and rofecoxib was tested in the rat MIA model in an acute dosing paradigm as described previously. MIA was injected into the right knee and saline into the left knee of all rats on Day 0. […] Two hours later, the rats were reassessed. The results for inhibition of pain, expressed as a percentage±standard error of the mean, are shown below in Table 5. The percent inhibition of pain was determined as described above in Biological Method 1. […] N=8 rats per group.

In assay [2] the test system is human recombinant IL-6/IL-6sR induced joint pain. The assay can be described thus: IL-6 with IL-6 soluble receptor induced joint pain in rat. In kind it is in vivo. The method, then:
as §1
Human recombinant IL-6 (100 ng per rat; R&D Systems, Minneapolis, Minn.) was incubated at room temperature with human recombinant IL-6 soluble receptor (300 ng per rat; R&D Systems, Minneapolis, Minn.) in phosphate buffered saline (“PBS”) for 15 minutes prior to injection. Rats were anesthetized with 5% volume/volume (“v/v”) isoflurane gas and maintained with 2% v/v isoflurane gas. The anesthetized rats were given a single intra-articular injection of IL-6/WL-6sR through the infrapatellar ligament of the right knee in a volume of 50 μL. The contralateral control knee was injected with 50 μL of PBS. Administration of isoflurane gas was discontinued, and the rats became fully conscious about 5 minutes later.
Shifts in hind paw weight distribution from the right (arthritic) to the left (contralateral control) paws were utilized as an index of joint pain and as a measure of compound efficacy. An incapacitance tester (Model 2KG, Linton Instrumentation, UK) was employed for determination of hind paw weight distribution. Each data point is the mean of three, 5-second readings.
CI-1027 was dissolved in BPMC vehicle as described above. Baseline changes in hind paw weight distribution readings were determined one day prior to injection of IL-6/IL-6sR. On the day of the experiment (Day 0), a single dose of CI-1027 (10, 30 or 100 mg/kg) was given via oral gavage 3 hours prior to injection of IL-6/IL-6sR (n=10 rats per group). Changes in hind paw weight distribution were determined one, three, and six hours after injection of IL-6/IL-6sR.
In Table 4 below, data from the method of Biological Method 5 are expressed as a percent inhibition of a change in hind paw weight distribution ± the standard error of the mean. The percents inhibition were calculated as follows. Percent inhibition of a change in hind paw weight distribution [formula] wherein: ΔWC is the hind-paw weight differential between the healthy limb and the hrIL-6+ hrIL-6sR injected limb of the control animal group administered vehicle alone, as measured at time 1, 3, or 6 hours post injection; and
ΔWG is the hind-paw weight differential between the healthy limb and the hrIL-6+ hrIL-6sR injected limb of a treatment animal group as measured at time 1, 3, or 6 hours post injection.

For the molecule `CC(C)(CCCCOCCCCC(C)(C)C(=O)[O-])C(=O)[O-].[Ca+2]` [CI-1027, 6-(5-carboxy-5-methyl-hexyloxy)-2,2-dimethyl-hexanoic acid, calcium salt], the figures for the “shift in weight bearing potential (joint pain) versus pre-dose” value in assay [1] (10 mg/kg PO single dose on Day 14), in assay [1] (30 mg/kg PO single dose on Day 14) and in assay [1] (100 mg/kg PO single dose on Day 14) were “did not significantly alter”, “only the change at the 4-hour post dose time point was statistically significant” and “statistically significant”, respectively. Besides, in assay [1] (CI-1027 10 mg/kg PO alone, Day 14), the “Mean pain alleviation at 2 hours post administration (% ± SEM)” value amounted to 20 ± 9%. The “Inhibition of Pain (% versus control), MIA (acute)” value in assay [1] (single oral dose 30 mg/kg on Day 7, 4 hours post dose) is listed as 67 ± 8%. The “inhibition of change in hind paw weight distribution” value in assay [2] (10 mg/kg PO 3 hours before IL-6/IL-6sR injection, 1 hour post injection (FIG. 6)) was 53±9%; in assay [2] (10 mg/kg PO 3 hours before injection, repeat experiment, blinded readings (FIG. 7)), 63±6%; in assay [2] (30 mg/kg PO 3 hours before IL-6/IL-6sR injection, 1 hour post injection (FIG. 6)), 74±8%; in assay [2] (30 mg/kg PO 3 hours before injection, repeat experiment, blinded readings (FIG. 7)) it was 71±10%; in assay [2] (100 mg/kg PO 3 hours before IL-6/IL-6sR injection, 1 hour post injection (FIG. 6)), 57±15%. Moreover, the “change in hind paw weight distribution” value in assay [2] (10, 30, 100 mg/kg PO, 3 and 6 hours post injection (6 and 9 hours post administration)) is “No significant effect”. Further, the “Inhibition of Pain (% versus control), IL-6” value in assay [2] (single oral dose 30 mg/kg on Day 1, 4 hours post dose) is on record as 71 ± 10%.
